Laboratory results: ChEMBL document CHEMBL4651402, “Screening of ~5500 FDA-approved drugs and clinical candidates for anti-SARS-CoV-2 activity” (2021)
pIC50: −log10 of the molar value.

Test system: SARS-CoV-2
Assay: microbe, parasite or virus in culture
Details: Severe acute respiratory syndrome coronavirus 2, Vero C1008, 48 h; for IC50: read-out: pIC50 (converted)

| Structure (SMILES) | pIC50 | IC50 [µM] |
| --- | --- | --- |
| Cn1cnc2c(F)c(Nc3ccc(Br)cc3Cl)c(C(=O)NOCCO)cc21 [SELUMETINIB] | < 4.70 | > 20 |
| C=C1C/C(=C/C)C(=O)O[C@@H]2CCN3CC=C(COC(=O)[C@]1(C)O)[C@H]23 [SENECIPHYLLINE] | < 4.70 | > 20 |
| NC(=O)C(c1ccccc1)(c1ccc(F)cc1)c1ccc(F)cc1 [SENICAPOC] | < 4.70 | > 20 |
| C[C@H](O)C(=O)C1=Nc2c(nc(N)[nH]c2=O)NC1 [SEPIAPTERIN] | < 4.70 | > 20 |
| CC1=C(C)C(=O)C(C(CCCCCC(=O)O)c2ccccc2)=C(C)C1=O (configuration not stated) [SERATRODAST] | < 4.70 | > 20 |
| NCCc1c[nH]c2ccc(O)cc12 [SEROTONIN] | < 4.70 | > 20 |
| Clc1ccc(C(Cn2ccnc2)OCc2csc3c(Cl)cccc23)c(Cl)c1 (configuration not stated) [SERTACONAZOLE] | < 4.70 | > 20 |
| O=C1NCCN1CCN1CCC(c2cn(-c3ccc(F)cc3)c3ccc(Cl)cc23)CC1 [SERTINDOLE] | < 4.70 | > 20 |
| c1cc2c(cc1[C@H]1OC[C@H]3[C@@H]1CO[C@@H]3c1ccc3c(c1)OCO3)OCO2 [SESAMIN] | < 4.70 | > 20 |
| O=C(O)Cn1c2c(c3cc(F)ccc31)CN(C(=O)c1cccc3ccccc13)CC2 [SETIPIPRANT] | < 4.70 | > 20 |
| Cc1nc2n(c(=O)c1CCN1CCC(C(=O)c3ccc(F)cc3)CC1)CCS2 [SETOPERONE] | < 4.70 | > 20 |
| CC(C)[C@](O)(c1ccc2cc(OC(F)F)c(OC(F)F)cc2c1)c1c[nH]nn1 [SEVITERONEL] | < 4.70 | > 20 |
| O=C(O)C1=C[C@@H](O)[C@@H](O)[C@H](O)C1 [SHIKIMIC ACID] | < 4.70 | > 20 |
| CC(C)=CC[C@@H](O)C1=CC(=O)c2c(O)ccc(O)c2C1=O [SHIKONIN] | < 4.70 | > 20 |
| CC(C)CC(N(C)C)C1(c2ccc(Cl)cc2)CCC1 (configuration not stated) [SIBUTRAMINE] | < 4.70 | > 20 |
| C[C@H](Cc1cc2c(c(C(N)=O)c1)N(CCCO)CC2)NCCOc1ccccc1OCC(F)(F)F [SILODOSIN] | < 4.70 | > 20 |
| COc1cc([C@H]2Oc3cc([C@H]4Oc5cc(O)cc(O)c5C(=O)[C@@H]4O)ccc3O[C@@H]2CO)ccc1O [SILYBIN A] | < 4.70 | > 20 |
| COc1cc([C@@H]2Oc3cc([C@H]4Oc5cc(O)cc(O)c5C(=O)[C@@H]4O)ccc3O[C@H]2CO)ccc1O [SILYBIN B] | < 4.70 | > 20 |
| CCC(C)(C)C(=O)O[C@H]1C[C@@H](C)C=C2C=C[C@H](C)[C@H](CC[C@@H]3C[C@@H](O)CC(=O)O3)[C@H]21 [SIMVASTATIN] | < 4.70 | > 20 |

| Structure (SMILES) | pIC50 | IC50 [µM] |
| --- | --- | --- |
| COc1cc(/C=C/C(=O)O)cc(OC)c1OC [SINAPIC ACID METHYL ETHER] | < 4.70 | > 20 |
| COC1=C[C@@H]2[C@@H]3Cc4ccc(OC)c(O)c4[C@]2(CCN3C)CC1=O [SINOMENINE] | < 4.70 | > 20 |
| CCc1cc(/C(C)=N/OCc2ccc(C3CCCCC3)c(C(F)(F)F)c2)ccc1CN1CC(C(=O)O)C1 [SIPONIMOD] | < 4.70 | > 20 |
| CO[C@H]1C[C@@H]2CC[C@@H](C)[C@@](O)(O2)C(=O)C(=O)N2CCCC[C@H]2C(=O)O[C@H]([C@H](C)C[C@@H]2CC[C@@H](O)[C@H](OC)C2)CC(=O)[C@H](C)/C=C(\C)[C@@H](O)[C@@H](OC)C(=O)[C@H](C)C[C@H](C)/C=C/C=C/C=C/1C [SIROLIMUS] | < 4.70 | > 20 |
| NCc1ccc2c(c1)nc(CN1C(=O)C3(CC3)c3ccc(F)cc31)n2CCCC(F)(F)F [SISUNATOVIR] | < 4.70 | > 20 |
| N[C@@H](CC(=O)N1CCn2c(nnc2C(F)(F)F)C1)Cc1cc(F)c(F)cc1F [SITAGLIPTIN] | < 4.70 | > 20 |
| Cc1cc2c(cc1CC(=O)c1sccc1S(=O)(=O)Nc1onc(C)c1Cl)OCO2 [SITAXENTAN] | < 4.70 | > 20 |
| COCCNCc1ccc(-c2cc3nccc(Oc4ccc(NC(=O)C5(C(=O)Nc6ccc(F)cc6)CC5)cc4F)c3s2)nc1 [SITRAVATINIB] | < 4.70 | > 20 |
| COc1ccc2c(OC)c3ccoc3nc2c1OC [SKIMMIANINE] | < 4.70 | > 20 |
| CC1(C)CC(=O)c2c(C(F)(F)F)nn(-c3ccc(C(N)=O)c(N[C@H]4CC[C@H](OC(=O)CN)CC4)c3)c2C1 [SNX 5422] | < 4.70 | > 20 |
| O=C(O)c1cccc(-c2cccc(NCCNC[C@H](O)c3cccc(Cl)c3)c2)c1 [SOLABEGRON] | < 4.70 | > 20 |
| CC1(C)CN(C(=O)c2ccc(-c3cccc4nc(NC(=O)C5CC5)nn34)cc2)C1 [SOLCITINIB] | < 4.70 | > 20 |
| NS(=O)(=O)c1ccc(N2CCN(CC[C@@H]3OCCc4ccccc43)CC2)cc1 [SONEPIPRAZOLE] | < 4.70 | > 20 |
| CNC(=O)c1cc(Oc2ccc(NC(=O)Nc3ccc(Cl)c(C(F)(F)F)c3)cc2)ccn1 [SORAFENIB] | < 4.70 | > 20 |
| COCCO[C@@H]1c2ccn3c(C)c(C)nc3c2N[C@H](c2ccccc2)[C@H]1O [SORAPRAZAN] | < 4.70 | > 20 |
| OC[C@@H](O)[C@@H](O)[C@H](O)[C@@H](O)CO [SORBITOL] | < 4.70 | > 20 |
| O=c1[nH]c(=O)n([C@@H]2O[C@H](CO)[C@@H](O)[C@@H]2O)cc1/C=C/Br [SORIVUDINE] | < 4.70 | > 20 |
| CCOc1ccc(Cc2cc([C@@H]3O[C@H](SC)[C@@H](O)[C@H](O)[C@H]3O)ccc2Cl)cc1 [SOTAGLIFLOZIN] | < 4.70 | > 20 |
| CC(C)NCC(O)c1ccc(NS(C)(=O)=O)cc1 (configuration not stated) [SOTALOL] | < 4.70 | > 20 |

| Structure (SMILES) | pIC50 | IC50 [µM] |
| --- | --- | --- |
| CC(C)NCC(O)c1ccc(O)c(NS(C)(=O)=O)c1 (configuration not stated) [SOTERENOL] | < 4.70 | > 20 |
| CN1CCN(c2nc(C3=C(c4c[nH]c5ccccc45)C(=O)NC3=O)c3ccccc3n2)CC1 [SOTRASTAURIN] | < 4.70 | > 20 |
| CNC(=O)c1cc(Oc2ccc3nc(N[C@@H]4CCCC[C@H]4O)sc3c2)ccn1 [SOTULETINIB] | < 4.70 | > 20 |
| C[C@@H]1CN(c2c(F)c(N)c3c(=O)c(C(=O)O)cn(C4CC4)c3c2F)C[C@H](C)N1 [SPARFLOXACIN] | < 4.70 | > 20 |
| C=CC(=O)Nc1cccc(Nc2nc(Nc3ccc(OCCOC)cc3)ncc2F)c1 [SPEBRUTINIB] | < 4.70 | > 20 |
| CN[C@@H]1[C@H](O)[C@H](NC)[C@H]2O[C@@]3(O)C(=O)C[C@@H](C)O[C@H]3O[C@@H]2[C@H]1O [SPECTINOMYCIN] | < 4.70 | > 20 |
| CC(=O)c1ccc2c(c1)C(=O)C1(CC1)O2 [SPIZOFURONE] | < 4.70 | > 20 |
| O=C(O)c1ccccc1Nc1cccc(OCc2ccc3ccccc3n2)c1 [SR-2640] | < 4.70 | > 20 |
| O=C(Oc1ccc(Br)cc1)N1CCN2CCC1CC2 [SSR180711] | < 4.70 | > 20 |
| C[C@]12CCC(=O)C[C@@H]1CC[C@@H]1[C@@H]2CC[C@]2(C)[C@@H](O)CC[C@@H]12 [STANOLONE] | < 4.70 | > 20 |
| CCCCCCCCCCCCCCCCCC(=O)O [STEARIC ACID] | < 4.70 | > 20 |
| CC(C)(C)C(O)/C=C/c1ccc2c(c1)OCO2 (configuration not stated) [STIRIPENTOL] | < 4.70 | > 20 |
| Cc1ccc2c(c1)[C@H]1CN(C)CC[C@H]1N2 [STOBADINE] | < 4.70 | > 20 |
| CN[C@@H]1[C@H](O[C@H]2[C@H](O[C@H]3[C@H](O)[C@@H](O)[C@H](N=C(N)N)[C@@H](O)[C@@H]3N=C(N)N)O[C@@H](C)[C@]2(O)C=O)O[C@@H](CO)[C@H](O)[C@H]1O [STREPTOMYCIN] | < 4.70 | > 20 |
| O=C1C[C@@H]2OCC=C3CN4CC[C@]56c7ccccc7N1[C@H]5[C@H]2[C@H]3C[C@H]46 [STRYCHNINE] | < 4.70 | > 20 |
| NC(=O)OCC(O)c1ccccc1 (configuration not stated) [STYRAMATE] | < 4.70 | > 20 |
| O=C(O)CCC(=O)O [SUCCINIC ACID] | < 4.70 | > 20 |
| O=C(O)CCC(=O)Nc1ccc(S(=O)(=O)Nc2nccs2)cc1 [SUCCINYLSULFATHIAZOLE] | < 4.70 | > 20 |
